{
  "source": "patent US20190100549A1",
  "about": "“FLAVONOIDE-TYPE COMPOUNDS BEARING AN O-RHAMNOSYL RESIDUE” (Universitaet Hamburg, priority 2016, published 2019)",
  "key": {"[1]": {"test_system": "hydrogen peroxide (DHR) in NHEK cells", "experiment": "Protection against UV-induced H2O2 stress in NHEK (DHR probe, flow cytometry)", "assay_type": "cell-based, human", "experimental": "(§1) Pre-incubated NHEK were incubated with the test compound for 24 h. Then the specific fluorescence probe for the measurement of hydrogen peroxide (DHR) or lipid peroxides (C11-fluor) was added and incubated for 45 min. Irradiation occurred with in H2O2 determination UVB at 180 mJ/cm^2 (+UVA at 2839 mJ/cm^2) or UVB at 240 mJ/cm^2 (+UVA at 3538 mJ/cm^2) in lipid peroxide, respectively, using a SOL500 Sun Simulator lamp. After irradiation the cells were post-incubated for 30 min before flow-cytometry analysis."}, "[2]": {"test_system": "lipid peroxides (C11-fluor) in NHEK cells", "experiment": "Protection against UV-induced lipid peroxide in NHEK (C11-fluor probe, flow cytometry)", "assay_type": "cell-based, human", "settings": "100 μM, 240 mJ/cm^2 UVB (3538 mJ/cm^2 UVA)", "experimental": "as §1"}, "VEGF": {"test_system": "VEGF", "experiment": "VEGF release in NHDF (ELISA)", "assay_type": "cell-based, human", "settings": "100 μM, 72 hours", "experimental": "(§2) Tests were performed with normal human dermal fibroblast cultures at the 8th passage. Cells were grown in DMEM supplemented with glutamine at 2 mM, penicillin at 50 U/mL and streptomycin (50 μg/mL) and 10% of fetal calf serum (FCS) at 37° C. in a 5% CO2 atmosphere.\n(§3) Fibroblasts were cultured for 24 hours before the cells were incubated with the test compounds for further 72 hours. After the incubation the culture supernatants were collected in order to measure the released quantities of procollagen I, VEGF, and fibronectin by means of ELISA. Reference test compounds were vitamin C (procollagen I), PMA (VEGF), and TGF-β (fibronectin)."}, "fibronectin": {"test_system": "fibronectin", "experiment": "Fibronectin synthesis in NHDF (ELISA)", "assay_type": "cell-based, human", "settings": "100 μM, 72 hours", "experimental": "as §2, §3"}, "[3]": {"test_system": "matrix metallopeptidase 1 (MMP-1)", "experiment": "MMP-1 release in UVA-irradiated NHDF (ELISA)", "assay_type": "cell-based, human", "settings": "100 μM, 15 J/cm^2 UVA", "experimental": "as §2\nHuman fibroblasts were cultured for 24 hours before the cells were pre-incubated with the test or reference compounds (dexamethasone) for another 24 hours. The medium was replaced by the irradiation medium (EBSS, CaCl2 0.264 g/L, MgClSO4 0.2 g/L) containing the test compounds) and cells were irradiated with UVA (15 J/cm^2). The irradiation medium was replaced by culture medium including again the test compounds incubated for 48 hours. After incubation the quantity of matrix metallopeptidase 1 (MMP-1) in the culture supernatant was measured using an ELISA kit."}, "STAT3": {"test_system": "STAT3", "experiment": "STAT3 activity in HeLa-STAT3-luc cells stimulated with IFN-γ (luciferase)", "assay_type": "cell-based", "settings": "+IFNγ 25 U/ml; for RLU 1 / RLU 2 / RLU 3: HeLa-STAT3-luc cells; for RLU 1: replicate well 1; for RLU 2: replicate well 2; for RLU 3: replicate well 3; for RLU specific: mean minus control; for Mean: mean of triplicate wells; for % Activation: IFNγ alone = 100% activation", "experimental": "HeLa-STAT3-luc cells were stably transfected with the plasmid 4xM67 pTATA TK-Luc. Cells (20×10^3 cells/ml) were seeded 96-well plate the day before the assay. Then the cells were treated with the test substances for 15 min and then stimulated with IFN-γ 25 IU/ml. After 6 h, the cells were washed twice with PBS and lysed in 50 μl lysis buffer containing 25 mM Tris-phosphate (pH 7.8), 8 mM MgCl2, 1 mM DTT, 1% Triton X-100, and 7% glycerol during 15 min at RT in a horizontal shaker. Luciferase activity was measured using GloMax 96 microplate luminometer (Promega) following the instructions of the luciferase assay kit (Promega, Madison, Wis., USA). […] The experiments for each concentration of the test items were done in triplicate wells."}, "[4]": {"settings": "100 μM, 180 mJ/cm^2 UVB (2839 mJ/cm^2 UVA)"}},
  "note": "Where “and” joins values, the source holds several entries; their conditions need not be identical. Identical values can stand only once.",
  "data": [
    {"molecule": "COc1ccc(C2CC(=O)c3c(cc(O)cc3O[C@@H]3O[C@@H](C)[C@H](O)[C@@H](O)[C@H]3O)O2)cc1O", "note": "(stereo partly drawn) [HESR1, Hesperetin-5-O-α-L-rhamnoside]", "values": [
      {"measurement": "anti-oxidative function on mitochondrially produced hydrogen peroxids species (in words)", "setting": "[1]", "result": "anti-oxidative function"},
      {"measurement": "H2O2 % irradiated control", "setting": "[1]; [4]", "result": 62, "unit": "%"},
      {"measurement": "H2O2 (AU) Mean", "setting": "[1]; [4]", "result": 1152, "unit": "AU"},
      {"measurement": "H2O2 Protection %", "setting": "[1]; [4]", "result": 45, "unit": "%"},
      {"measurement": "H2O2 (AU) (DHR GMFI)", "setting": "[1]; 100 μM, 180 mJ/cm^2 UVB (2839 mJ/cm^2 UVA), single values", "result": "1046 AU and 1258 AU"},
      {"measurement": "C11-fluor(AU) Mean (1/GMFI)", "setting": "[2]", "result": "6.4E−04", "unit": "AU"},
      {"measurement": "lipid peroxide % Irradiated control", "setting": "[2]", "result": 99, "unit": "%"},
      {"measurement": "lipid peroxide Protection %", "setting": "[2]", "result": 1, "unit": "%"},
      {"measurement": "C11-fluor(AU) 1/GMFI", "setting": "[2]; single values", "result": "6.0E−04 AU and 6.9E−04 AU"},
      {"measurement": "C11-fluor(AU) GMFI", "setting": "[2]; single values", "result": "1671 AU and 1455 AU"},
      {"measurement": "Mean VEGF", "setting": "VEGF", "result": 73, "unit": "pg/mL"},
      {"measurement": "VEGF % Control", "setting": "VEGF", "result": 101, "unit": "%"},
      {"measurement": "VEGF % Stimulation", "setting": "VEGF", "result": 1, "unit": "%"},
      {"measurement": "VEGF", "setting": "VEGF; single values", "result": "70 pg/mL and 76 pg/mL"},
      {"measurement": "Fibronectin % Control", "setting": "fibronectin", "result": 96, "unit": "%"},
      {"measurement": "Fibronectin % Stimulation", "setting": "fibronectin", "result": "−4", "unit": "%"},
      {"measurement": "Fibronectin Mean", "setting": "fibronectin", "result": 5853, "unit": "ng/mL"},
      {"measurement": "Fibronectin", "setting": "fibronectin; single values", "result": "5843 ng/mL and 5864 ng/mL"},
      {"measurement": "MMP-1 % Irradiated control", "setting": "[3]", "result": 116, "unit": "%"},
      {"measurement": "MMP-1 % Protection", "setting": "[3]", "result": "−25", "unit": "%"},
      {"measurement": "Mean MMP-1", "setting": "[3]", "result": 82.2, "unit": "ng/mL"},
      {"measurement": "MMP-1", "setting": "[3]; single values", "result": "87.0 ng/mL and 77.4 ng/mL"},
      {"measurement": "RLU 1", "setting": "STAT3; 25 μM test substance", "result": 13396, "unit": "RLU"},
      {"measurement": "RLU 2", "setting": "STAT3; 25 μM test substance", "result": 12243, "unit": "RLU"},
      {"measurement": "RLU 3", "setting": "STAT3; 25 μM test substance", "result": 12859, "unit": "RLU"},
      {"measurement": "RLU specific", "setting": "STAT3; 25 μM test substance", "result": 10825, "unit": "RLU"},
      {"measurement": "Mean", "setting": "STAT3; 25 μM test substance", "result": 12833, "unit": "RLU"},
      {"measurement": "% Activation", "setting": "STAT3; 25 μM test substance", "result": 86.48, "unit": "%"},
      {"measurement": "RLU 1", "setting": "STAT3; 50 μM test substance", "result": 14303, "unit": "RLU"},
      {"measurement": "RLU 2", "setting": "STAT3; 50 μM test substance", "result": 13124, "unit": "RLU"},
      {"measurement": "RLU 3", "setting": "STAT3; 50 μM test substance", "result": 11985, "unit": "RLU"},
      {"measurement": "RLU specific", "setting": "STAT3; 50 μM test substance", "result": 11130, "unit": "RLU"},
      {"measurement": "Mean", "setting": "STAT3; 50 μM test substance", "result": 13137, "unit": "RLU"},
      {"measurement": "% Activation", "setting": "STAT3; 50 μM test substance", "result": 88.92, "unit": "%"}
    ]}
  ]
}
